Data published in patent publication US4563467A, “Derivatives of N-iminopyridinium betaines having anti-hypertensive and salidiuretic activity and their preparation” (Provesan S.A., priority 1983, dated 1986).
Where a name gives a salt, the structure may show the parent alone. Read-outs that look alike come from different tables or passages of the source.

Test: Diuretic activity (method of Taylor and Topliss): elimination of urine and urine parameters over 8 hours
Assay type: in vivo, Male Sprague-Dawley (HC/CFY) rats
Settings: rat; for ED50: po, from regression of log dose against percentage effect; for ED50 / Elimination of urine, 8 h: 8 h; for Elimination in the urine: Cl / Elimination in the urine: K / Elimination in the urine: Na / Osmotic pressure of urine / Urine pH / Elimination of urine, 1 h / Elimination of urine, 2 h / Elimination of urine, 3 h / Elimination of urine, 4 h / Elimination of urine, 6 h / Elimination of urine, 8 h: 40 mg/kg; for Elimination in the urine: Cl / Elimination in the urine: K / Elimination in the urine: Na / Osmotic pressure of urine / Urine pH: over 8 hours; for Elimination of urine, 1 h / Elimination of urine, 2 h / Elimination of urine, 3 h / Elimination of urine, 4 h / Elimination of urine, 6 h / Elimination of urine, 8 h: probang
Experimental: ACTIVITY Method of R. M. Taylor and […]. Med. Pharm. Chem. 1962, 4, 312 Male Sprague-Dawley (HC/CFY) rats weighting between 150 and 200 grams are used. The animals are kept without food and water for 16 hours before the start of the test. The products are administered as a suspension in a 0.5% strength carboxymethylcellulose suspension in a 0.9% strength sodium chloride solution, using a probang, the amount administered being 50 ml/kg of body weight. […] The following parameters are determined in the urine: volume (ml/kg); sodium and potassium (milliequivalents/kg/8 h) (flame photometer); chloride (milliequivalents/kg/8 h) (chloride-meter); pH/8 h (pH-meter) and osmotic pressure (osmotic millimols/kg/8 h) (osmometer). The comparsion animals are given the 0.5% strength carboxymethylcellulose suspension in a 0.9% strength sodium chloride solution in an amount of […] of body weight.

[1] = read-out: ED50, osmotic pressure (m osmol/kg/8 h)
[2] = read-out: ED50, volume of urine (ml/kg/8 h)

Row | Structure (SMILES) | ED50 [1] | ED50 [2] | Elimination in the urine: Cl | Elimination in the urine: K | Elimination in the urine: Na | Osmotic pressure of urine | Urine pH | Elimination of urine, 1 h | Elimination of urine, 2 h | Elimination of urine, 3 h | Elimination of urine, 4 h | Elimination of urine, 6 h | Elimination of urine, 8 h
1 | NS(=O)(=O)c1cc(C2(O)NC(=O)c3ccccc32)ccc1Cl (centres unmarked) [Chlortalidone, reference compound] | 7.7 mg/kg | 6.9 mg/kg | 10.8 milliequivalents/kg/8 h | 1.9 milliequivalents/kg/8 h | 9.3 milliequivalents/kg/8 h | 29.9 osmotic millimols/kg/8 h | 6.6 | 8.7 mL/kg | 21.0 mL/kg | 30.9 mL/kg | 37.6 mL/kg | 45.6 mL/kg | 49.8 mL/kg
2 | NS(=O)(=O)c1cc(C(=O)[N-][n+]2ccccc2)ccc1Cl [Example 1, 1-[(4-chloro-3-sulfamylbenzoyl)-amino]pyridinium hydroxide inner salt] | 1.9 mg/kg | 4.1 mg/kg | 9.2 milliequivalents/kg/8 h | 1.5 milliequivalents/kg/8 h | 8.3 milliequivalents/kg/8 h | 25.5 osmotic millimols/kg/8 h | 6.6 | 7.3 mL/kg | 15.2 mL/kg | 27.6 mL/kg | 35.4 mL/kg | 40.5 mL/kg | 44.5 mL/kg
3 | Cc1cccc(C)[n+]1[N-]C(=O)c1ccc(Cl)c(S(N)(=O)=O)c1 [Example 3, 1-[(4-chloro-3-sulfamylbenzoyl)-amino]-2,6-dimethylpyridinium hydroxide inner salt] | 2.1 mg/kg | 4.6 mg/kg | 11.7 milliequivalents/kg/8 h | 1.8 milliequivalents/kg/8 h | 9.5 milliequivalents/kg/8 h | 34.2 osmotic millimols/kg/8 h | 6.1 | 8.4 mL/kg | 22.9 mL/kg | 31.9 mL/kg | 36.7 mL/kg | 45.2 mL/kg | 50.7 mL/kg
4 | NC(=O)c1ccc[n+]([N-]C(=O)c2ccc(Cl)c(S(N)(=O)=O)c2)c1 [Example 4, 1-[(4-chloro-3-sulfamylbenzoyl)-amino]-3-carbamylpyridinium hydroxide inner salt] |  |  | 7.0 milliequivalents/kg/8 h | 1.1 milliequivalents/kg/8 h | 6.6 milliequivalents/kg/8 h | 20.8 osmotic millimols/kg/8 h | 6.2 | 5.8 mL/kg | 8.6 mL/kg | 19.5 mL/kg | 24.2 mL/kg | 31.1 mL/kg | 37.5 mL/kg
5 | Cc1cc(C)[n+]([N-]C(=O)c2cc(S(N)(=O)=O)c(Cl)cc2NCc2ccco2)c(C)c1 [Example 5, 1-{[4-chloro-2-(2-furylmethylamino)-5-sulfamylbenzoyl]-amino}-2,4,6-trimethylpyridinium hydroxide inner salt] |  |  | 6.2 milliequivalents/kg/8 h | 1.3 milliequivalents/kg/8 h | 3.0 milliequivalents/kg/8 h | 16.6 osmotic millimols/kg/8 h | 6.1 | 1.1 mL/kg | 3.4 mL/kg | 8.0 mL/kg | 12.5 mL/kg | 18.4 mL/kg | 20.7 mL/kg
6 | NS(=O)(=O)c1cc(C(=O)[N-][n+]2c(-c3ccccc3)cc(-c3ccccc3)cc2-c2ccccc2)ccc1Cl [Example 6, 1-[(4-chloro-3-sulfamylbenzoyl)-amino]2,4,6-triphenylpyridinium hydroxide inner salt] |  |  | 8.1 milliequivalents/kg/8 h | 1.1 milliequivalents/kg/8 h | 6.6 milliequivalents/kg/8 h | 25.3 osmotic millimols/kg/8 h | 6.0 | 6.9 mL/kg | 14.2 mL/kg | 19.4 mL/kg | 22.2 mL/kg | 26.0 mL/kg | 27.4 mL/kg
7 | Cc1cc(C)[n+](NC(=O)c2ccc(Cl)c(S(N)(=O)=O)c2)c(C)c1.[Cl-] [Example 7, 1-[(4-chloro-3-sulfamylbenzoyl)-amino]-2,4,6-trimethylpyridinium chloride] |  |  | 9.3 milliequivalents/kg/8 h | 1.6 milliequivalents/kg/8 h |  | 31.0 osmotic millimols/kg/8 h | 6.3 | 6.2 mL/kg | 18.6 mL/kg | 28.4 mL/kg | 36.1 mL/kg | 47.3 mL/kg | 52.4 mL/kg
8 | Cc1cc(C)[n+](NC(=O)c2cc(S(N)(=O)=O)c(Cl)cc2NCc2ccco2)c(C)c1.Cl.[Cl-] [Example 8, 1-{[4-chloro-2-(2-furylmethylamino)-5-sulfamylbenzoyl]-amino}-2,4,6-trimethylpyridinium chloride hydrochloride] |  |  | 7.2 milliequivalents/kg/8 h | 1.2 milliequivalents/kg/8 h | 5.9 milliequivalents/kg/8 h | 23.4 osmotic millimols/kg/8 h | 6.7 | 0.0 mL/kg | 11.9 mL/kg | 19.6 mL/kg | 28.5 mL/kg | 34.4 mL/kg | 39.2 mL/kg
9 | NS(=O)(=O)c1cc(C(=O)N[n+]2c(-c3ccccc3)cc(-c3ccccc3)cc2-c2ccccc2)ccc1Cl.[Cl-] [Example 9, 1-[(4-chloro-3-sulfamylbenzoyl)-amino]-2,4,6-triphenylpyridinium chloride] |  |  | 7.5 milliequivalents/kg/8 h | 1.2 milliequivalents/kg/8 h | 6.0 milliequivalents/kg/8 h | 25.1 osmotic millimols/kg/8 h | 6.2 | 5.2 mL/kg | 12.6 mL/kg | 16.8 mL/kg | 19.0 mL/kg | 21.5 mL/kg | 25.3 mL/kg
